Where two headings read alike, the source gives them in different places.
Key:
[1] = target: T1, GluA2 AMPA receptor subunit (flip isoform) (Homo sapiens, UniProt P42262); experiment: Whole-cell patch-clamp electrophysiology, homomeric GluA2 expressed in HEK293 cells; type: cell-based; conditions: for IC50: Hill fit
T1 construct: expressed in transfected cells; host or cells: HEK293
Experimental: (§1) Up to 20 μg of high-copy plasmid DNA was prepared using the QIAGEN Plasmid Mini Kit, the tubes were then centrifuged to extract the supernatant containing the plasmid DNA, ethanol was used to wash the DNA pellet, then centrifuged again and the supernatant was carefully removed as to not disturb the pellet, finally, the pellet was air-dried, and the DNA was re-dissolved in a suitable volume of buffer, (our prior study detailed the whole DNA preparation data). The flip isoform was used in all AMPAR subunits used in this investigation. AMPAR subunits were subcloned in pRK and expressed in the human embryonic kidney cells (HEK293) (The HEK293 cell line was obtained from Sigma, Schnelldorf, Germany). IPA (Integrated Patch Amplifier) recorded HEK293 cells 36–48 h after transfection using the patch-clamp method (Sutter Instruments, Novato, CA, USA). A high-speed piezo solution switcher was installed on a double-barreled glass (theta tube) to provide solutions fast, isolate receptor responses from any network influences, and preserve, as much as possible, the postsynaptic protein machinery. Thus, inhibition was measured by comparing the current recorded when glutamate alone was administered to the current observed when glutamate plus the compound of interest was delivered to the same cell. Before administering the α-LA compounds, experiments were conducted to determine the appropriate concentration to be delivered to the cells without harming them. Dichloromethane (12 µM) effect on GluA1 and GluA2 subunits was tested to ensure that it had no effect on AMPA receptor currents (Figure S8). The effect of α-LA compounds on AMPA subunits plateaued at a concentration of 12 µM because LA inhibits AMPA receptors at low concentrations and continues to inhibit them when LA concentrations are increased by 2 µM each interval, as shown in Figure S1. The concentration increased by 2 µM each time to ensure that no cells were harmed. The cells were washed for 20 s between α-LA derivatives (12 µM), and 10 mM glutamate was supplied alone after each α-LA compound to ensure cell health. Data analysis was carried out using Igor Pro7 (Wave Metrics, inc). For both desensitization (τw des) and deactivation rates (τw deact), an exponential fit to the current decline was obtained at 95% of peak to baseline current. The weighted tau (τw) was calculated as τw = (τf × af) + (τs × as), where af and as are the amplitudes of the fast (τf) and slow (τs) exponential components, respectively. Our study detailed the experimental data set.
(§2) Data are presented as mean ± standard error of the mean (SEM). The number of samples (n = 10) refers to the total number of tested HEK293 cells. Statistical differences between the groups and the wild type were examined by One Way Analysis of Variance (ANOVA), with values of p < 0.05 being considered to indicate statistical significance: (*) p < 0.05, (**) p < 0.01, (***) p < 0.001, ns, not significant. Concentration-response relationships were fitted as composite curves using GraphPad Prism version 6.01 (GraphPad Software, San Diego, CA, USA) to the Hill equation. All results were representative of at least three independent experiments.
(§3) Figure 2 Suppression of AMPA receptor currents by α-LA compounds. Graphs (a,c,e,g) present AMPA receptor currents (pA) before and after the administration of α-LA derivatives on GluA1, GluA1/2, GluA2, and GluA2/3 subunits. While (b,d,f,h) present the ratio A/AI, where A represents the current caused by 10 mM glutamate alone and AI represents the current induced by glutamate + α-LA (12 µM). The whole-cell current was measured at −60 mV, pH 7.4, and 22 °C. A one way analysis of variance (ANOVA) was performed for comparison: *** p < 0.001; ns, not significant. Ten cells were investigated for each LA compound. All values are shown as mean SEM.
(§4) Figure 3 The potency of LA compounds against AMPA receptor subunits. […]

[2] = target: T2, GluA1/2 AMPA receptor subunits (flip isoform) (Homo sapiens, UniProt P42261+P42262); experiment: Whole-cell patch-clamp electrophysiology, heteromeric GluA1/2 expressed in HEK293 cells; type: cell-based; conditions: for IC50: Hill fit
T2 construct: expressed in transfected cells; host or cells: HEK293
T2 sequence (P42261 19-906 isoform P42261-2 limits assumed): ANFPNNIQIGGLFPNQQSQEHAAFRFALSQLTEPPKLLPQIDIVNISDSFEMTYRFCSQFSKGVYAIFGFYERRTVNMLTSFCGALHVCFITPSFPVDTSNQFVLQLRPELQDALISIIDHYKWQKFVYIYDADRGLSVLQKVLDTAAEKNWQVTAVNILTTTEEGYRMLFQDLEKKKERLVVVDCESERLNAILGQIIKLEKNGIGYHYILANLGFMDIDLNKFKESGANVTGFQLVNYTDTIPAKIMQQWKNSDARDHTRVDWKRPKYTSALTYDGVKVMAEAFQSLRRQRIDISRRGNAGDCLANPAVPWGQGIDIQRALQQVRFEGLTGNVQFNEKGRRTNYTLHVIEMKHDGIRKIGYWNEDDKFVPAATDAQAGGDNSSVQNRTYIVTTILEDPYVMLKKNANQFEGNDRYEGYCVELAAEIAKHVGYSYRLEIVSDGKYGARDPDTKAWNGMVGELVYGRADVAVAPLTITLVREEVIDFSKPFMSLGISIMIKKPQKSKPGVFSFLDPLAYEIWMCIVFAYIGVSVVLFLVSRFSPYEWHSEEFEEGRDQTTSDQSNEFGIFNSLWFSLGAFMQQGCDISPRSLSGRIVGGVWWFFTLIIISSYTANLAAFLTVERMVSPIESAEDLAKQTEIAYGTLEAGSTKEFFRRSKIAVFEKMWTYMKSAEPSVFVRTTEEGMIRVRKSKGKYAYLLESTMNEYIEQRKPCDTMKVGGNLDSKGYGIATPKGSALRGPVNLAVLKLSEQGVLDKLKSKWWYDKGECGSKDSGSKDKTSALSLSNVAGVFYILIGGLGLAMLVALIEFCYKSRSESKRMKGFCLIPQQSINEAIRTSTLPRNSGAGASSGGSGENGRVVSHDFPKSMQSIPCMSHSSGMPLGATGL
T2 sequence (P42262 25-883 isoform P42262-2 limits assumed): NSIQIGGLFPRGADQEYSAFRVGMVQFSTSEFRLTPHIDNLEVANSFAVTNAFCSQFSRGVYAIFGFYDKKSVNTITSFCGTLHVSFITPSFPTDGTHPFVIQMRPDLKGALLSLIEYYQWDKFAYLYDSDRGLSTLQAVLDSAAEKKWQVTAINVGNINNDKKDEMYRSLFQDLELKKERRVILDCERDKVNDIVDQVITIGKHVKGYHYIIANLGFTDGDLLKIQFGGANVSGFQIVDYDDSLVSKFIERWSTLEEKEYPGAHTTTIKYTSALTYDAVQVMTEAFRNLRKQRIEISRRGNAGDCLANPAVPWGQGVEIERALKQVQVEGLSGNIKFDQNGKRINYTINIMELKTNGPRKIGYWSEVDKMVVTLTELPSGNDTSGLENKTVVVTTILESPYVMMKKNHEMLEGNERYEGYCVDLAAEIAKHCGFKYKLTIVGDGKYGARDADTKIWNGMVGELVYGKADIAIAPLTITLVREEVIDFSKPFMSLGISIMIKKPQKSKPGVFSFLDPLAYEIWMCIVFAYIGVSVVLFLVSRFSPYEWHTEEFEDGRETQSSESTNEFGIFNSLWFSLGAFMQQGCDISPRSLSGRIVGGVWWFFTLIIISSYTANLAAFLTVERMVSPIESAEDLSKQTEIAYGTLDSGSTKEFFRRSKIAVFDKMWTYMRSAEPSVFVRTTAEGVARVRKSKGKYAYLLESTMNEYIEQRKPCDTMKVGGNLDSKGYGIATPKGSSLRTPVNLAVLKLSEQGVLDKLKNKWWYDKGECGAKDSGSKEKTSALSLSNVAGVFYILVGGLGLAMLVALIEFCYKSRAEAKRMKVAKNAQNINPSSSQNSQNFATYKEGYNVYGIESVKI
Experimental: as §1, §2, §3, §4

[3] = target: T3, GluA2/3 AMPA receptor subunits (flip isoform) (Homo sapiens, UniProt P42262+P42263); experiment: Whole-cell patch-clamp electrophysiology, heteromeric GluA2/3 expressed in HEK293 cells; type: cell-based; conditions: for IC50: Hill fit
T3 construct: expressed in transfected cells; host or cells: HEK293
T3 sequence (P42262 25-883 isoform P42262-2 limits assumed): as above
T3 sequence (P42263 29-894 isoform P42263-2 limits assumed): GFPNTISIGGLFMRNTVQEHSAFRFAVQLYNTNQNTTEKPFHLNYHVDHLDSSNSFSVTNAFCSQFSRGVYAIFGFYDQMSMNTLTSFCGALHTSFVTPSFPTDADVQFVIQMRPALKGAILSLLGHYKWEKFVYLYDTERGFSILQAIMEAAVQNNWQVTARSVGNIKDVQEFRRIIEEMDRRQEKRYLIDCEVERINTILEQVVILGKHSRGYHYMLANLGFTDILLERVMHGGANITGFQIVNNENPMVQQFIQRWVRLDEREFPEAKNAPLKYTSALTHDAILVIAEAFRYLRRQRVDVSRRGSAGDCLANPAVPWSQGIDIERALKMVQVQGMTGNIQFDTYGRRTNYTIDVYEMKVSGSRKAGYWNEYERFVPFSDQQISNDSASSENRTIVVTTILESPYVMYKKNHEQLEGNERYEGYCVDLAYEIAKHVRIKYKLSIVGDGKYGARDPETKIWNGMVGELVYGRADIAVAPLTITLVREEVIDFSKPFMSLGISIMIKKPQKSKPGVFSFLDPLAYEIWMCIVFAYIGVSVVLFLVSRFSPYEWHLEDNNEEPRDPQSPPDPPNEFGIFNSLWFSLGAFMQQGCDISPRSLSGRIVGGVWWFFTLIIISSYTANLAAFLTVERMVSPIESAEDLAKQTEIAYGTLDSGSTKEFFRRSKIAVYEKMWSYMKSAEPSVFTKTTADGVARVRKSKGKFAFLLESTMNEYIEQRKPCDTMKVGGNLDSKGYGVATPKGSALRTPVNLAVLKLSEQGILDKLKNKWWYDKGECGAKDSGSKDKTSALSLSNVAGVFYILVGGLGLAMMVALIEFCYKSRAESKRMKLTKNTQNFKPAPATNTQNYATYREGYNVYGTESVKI
Experimental: as §1, §2, §3, §4

HEK293 cells = tested on: HEK293 cells; parameters: method as in PMID 23780308; conditions: 8 µM α-lipoic acid; cited from earlier work
[4] = target: T4, GluA1 AMPA receptor subunit (flip isoform) (Homo sapiens, UniProt P42261); experiment: Whole-cell patch-clamp electrophysiology, homomeric GluA1 expressed in HEK293 cells; type: cell-based; conditions: for IC50: Hill fit
T4 construct: expressed in transfected cells; host or cells: HEK293
T4 sequence (P42261 19-906 isoform P42261-2 limits assumed): as the sequence (P42261 19-906 isoform P42261-2 limits assumed) above
Experimental: as §1, §2, §3, §4

[5] = tested on: EA.hy926 endothelial cells; parameters: method as in PMID 18026819; conditions: 40–80 µM α-lipoic acid; cited from earlier work
[6] = tested on: AMPA receptor subunits (GluA1, GluA2, GluA1/2, GluA2/3); experiment: Whole-cell patch-clamp electrophysiology, summary over the AMPA receptor subunits in HEK293 cells; type: cell-based
Experimental: as §1, §2
The levels of inhibition of α-LA and its derivatives attracted our attention to assessing the potency of the compounds in a concentration-dependent manner. […] The concentration−inhibition curves were produced by administering glutamate alone at a concentration of 10 mM, followed by glutamate + α-LA derivatives at varying concentrations (in μM) for every recording point. Afterward, the cells were normalized back by administering glutamate alone. Since the glutamate concentration in the synaptic cleft constantly saturates the receptors, driving the response to a near maximum level, variability occurs because the maximum level changes. […]

[7] = 10 mM glutamate + 12 µM compound, −60 mV, pH 7.4, 22 °C, mean ± SEM, n = 10
[8] = 10 mM glutamate, 12 µM compound, n = 10
[9] = whole-cell normalized peak amplitude, unit printed in the text, not in Table S6, read-out: IC50
[10] = all AMPA receptor subunits, 12 µM compound

T1 sequence (P42262 25-883 isoform P42262-2 limits assumed): as the sequence (P42262 25-883 isoform P42262-2 limits assumed) above

For O=C(O)CCCCC1CCSS1 (stereo not drawn) [α-LA, alpha-Lipoic acid, reference compound], the “Amplitude (glutamate + compound)” value [1, 7] was 136±22 pA, the “A/AI (current with glutamate alone / current with glutamate + compound)” value [1, 8] was 9.09±0.8 and the IC50 ([1]; read-out: Log IC50 (converted)) was 3.89 µM. For the same compound, the “t deact (weighted deactivation time constant)” value (“t deact” for short) ([1]; glutamate + 12 µM compound, glutamate alone 2.4±0.1 ms) was 8.8 ± 0.5 ms, the “t des (weighted desensitization time constant)” value (“t des” for short) ([1]; glutamate + 12 µM compound, glutamate alone 2.6±0.1 ms) was 1.5 ± 0.04 ms and the IC50 [1, 9] was 3.93 µM. The “Amplitude (glutamate + compound)” value [2, 7] was 69±10.0 pA, the “A/AI (current with glutamate alone / current with glutamate + compound)” value [2, 8] was 9.13±0.9 and the IC50 ([2]; read-out: Log IC50 (converted)) was 3.89 µM. For the same compound, the “t deact” value ([2]; glutamate + 12 µM compound, glutamate alone 2.5±0.3 ms) was 8.9 ± 0.5 ms, the “t des” value ([2]; glutamate + 12 µM compound, glutamate alone 5.3±0.4 ms) was 3.3 ± 0.3 ms and the IC50 [2, 9] was 3.86 µM. For the same compound, the “Amplitude (glutamate + compound)” value [3, 7] was 60±11.0 pA, the “A/AI (current with glutamate alone / current with glutamate + compound)” value [3, 8] was 8.93±1.0 and the IC50 ([3]; read-out: Log IC50 (converted)) was 3.98 µM. For the same compound, the “t deact” value ([3]; glutamate + 12 µM compound, glutamate alone 2.4±0.3 ms) was 8.6 ± 0.7 ms, the “t des” value ([3]; glutamate + 12 µM compound, glutamate alone 2.7±0.3 ms) was 1.6 ± 0.09 ms and the IC50 [3, 9] was 4.01 µM. The “harm to the cells” value (HEK293 cells) was “without noticing any harm”, the “Amplitude (glutamate + compound)” value [4, 7] was 102±14.0 pA and the “A/AI (current with glutamate alone / current with glutamate + compound)” value [4, 8] was 9.26±0.6. The IC50 ([4]; read-out: Log IC50 (converted)) was 3.55 µM, the “t deact” value ([4]; glutamate + 12 µM compound, glutamate alone 2.2±0.1 ms) was 9.1 ± 0.6 ms and the “t des” value ([4]; glutamate + 12 µM compound, glutamate alone 2.3±0.1 ms) was 1.3 ± 0.1 ms. For the same compound, the IC50 [4, 9] was 3.54 µM, the “toxicity to the cells” value [5] was “without causing toxicity” and the “increase of the rate of AMPA receptor deactivation (τw deact)” value [6, 10] was “about 4 fold”. For the same compound, the “reduction in the rate of desensitization (τw des)” value [6, 10] was 2 fold, the “increase of the ratio A/AI” value ([6]; all AMPA receptor subunits, glutamate alone vs glutamate + compound) was 9 fold and the IC50 ([6]; over GluA1, GluA1/2, GluA2, GluA2/3, read-out: approximate IC50 against AMPA receptor subunits) was 3.5 to 4 µM.
